From the supplement of paper PMC11208160

Experiment: recombinant barcode read abundance after kanamycin selection (control-corrected) (log10(CPM+1)); higher = more efficient recombination; sequences stand for … in AGTGCAGAGAAAATCGGCCAGTTTTCTCTGCCTGCAGTCCGCATGCCGT…AGATTTATGCAGCGGACTGCCTTTCTCCCAAAGTGATAAACCGGACAGTATCATGGACCGGTTTTCCCGGTAATCCGTATTTGCAAGGTTGGTTTCACT; site = the 11-nt target
Method in brief: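 Two replicates per condition were plated: chloramphenicol/ampicillin LB agar for the control, and chloramphenicol/ampicillin/kanamycin with 0.1 mM IPTG for selection. The pooled E. coli screen behind them paired targets with IS621 bridge RNA target-binding loops. Recombination efficiency is expressed from averaged, control-corrected barcode counts per million at recombinant junctions, as log10(CPM+1).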
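Also: IS621 recombinase and bridge RNA in Escherichia coli cells.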

Sequence | recombinant barcode read abundance (log10)
ATCACTACTTGGGTTCTAACCTGTTGCCT (site CTTACTACTAG) | 0.0823
ATCCGCTCTTGGGTTCTAACCTGTTGCCT (site ATCCGCTCTAG) | 2.06
ATCCGCTCTTGGGTTCTAACCTGTTGCCT (site CTCCGCTCTAG) | 1
ATCCGCTCTTGGGTTCTAACCTGTTGCCT (site GTCCGCTCTAG) | 0.0221
ATCCGCTCTTGGGTTCTAACCTGTTGCCT (site TTCCGCTCTAG) | 0.771
ATCCTACCTTGGGTTCTAACCTGTTGCTT (site ATCCTACCTAA) | 1.72
ATCCTACCTTGGGTTCTAACCTGTTGCTT (site ATCGTACCTCA) | 0.113
ATCGAGTCTTGGGTTCTAACCTGTTGCCA (site ATCGAGTCTTG) | 0.276
ATCGAGTCTTGGGTTCTAACCTGTTGCCA (site CAAATCCCTAC) | 0.112
ATCGGAACTTGGGTTCTAACCTGTTGCCT (site ATCGGAACTAG) | 1.01
ATCGGAACTTGGGTTCTAACCTGTTGCCT (site ATCGGACCTAG) | 0.0301
ATCGGAACTTGGGTTCTAACCTGTTGCCT (site ATCGGAGCTAG) | 0.13
ATCGGAACTTGGGTTCTAACCTGTTGCCT (site ATCGGATCTAG) | 0.209
ATCGGACCTTGGGTTCTAACCTGTTGCTG (site ATCGGACCTCA) | 0.901
ATCGGACCTTGGGTTCTAACCTGTTGCTG (site TATAATGCTAC) | 0.148
ATCGGAGCTTGGGTTCTAACCTGTTGCAG (site ATCGGAGCTCA) | 0.504
ATCGGAGCTTGGGTTCTAACCTGTTGCAG (site ATCGGAGCTCC) | 0.166
ATCGGAGCTTGGGTTCTAACCTGTTGCAG (site ATCGGAGCTCG) | 0.294
ATCGGAGCTTGGGTTCTAACCTGTTGCAG (site ATCGGAGCTCT) | 0.953
ATCGGAGCTTGGGTTCTAACCTGTTGCCG (site ATCGGAGCTCA) | 0.165
ATCGGAGCTTGGGTTCTAACCTGTTGCCG (site ATCGGAGCTCC) | 0.0715
ATCGGAGCTTGGGTTCTAACCTGTTGCCG (site ATCGGAGCTCG) | 0.497

Sequence | recombinant barcode read abundance (log10)
ATCGGAGCTTGGGTTCTAACCTGTTGCCG (site ATCGGAGCTCT) | 0.123
ATCGGTCCTTGGGTTCTAACCTGTTGCCT (site ATAGGTCCTAG) | 0.476
ATCGGTCCTTGGGTTCTAACCTGTTGCCT (site ATCGGTCCTAG) | 1.29
ATCGGTCCTTGGGTTCTAACCTGTTGCCT (site ATGGGTCCTAG) | 0.0682
ATCGGTCCTTGGGTTCTAACCTGTTGCCT (site ATTGGTCCTAG) | 0.174
ATCGTACCTTGGGTTCTAACCTGTTGCTA (site ATCGTACCTTA) | 0.0937
ATCGTACCTTGGGTTCTAACCTGTTGCTA (site CAAAAGGCTAG) | 0.973
ATCGTTGCTTGGGTTCTAACCTGTTGCCT (site ATCGTTGCTAG) | 0.657
ATCGTTGCTTGGGTTCTAACCTGTTGCCT (site CTCGTTGCTAG) | 0.0176
ATCGTTGCTTGGGTTCTAACCTGTTGCCT (site GTCGTTGCTAG) | 0.0617
ATCGTTGCTTGGGTTCTAACCTGTTGCCT (site TTCGTTGCTAG) | 0.0404
ATCTAGGCTTGGGTTCTAACCTGTTGCCG (site ATCTAGGCTCG) | 0.0337
ATCTAGGCTTGGGTTCTAACCTGTTGCCG (site CATAGATCTAT) | 0.099
ATCTGGGCTTGGGTTCTAACCTGTTGCCT (site AACTGGGCTAG) | 0.339
ATCTGGGCTTGGGTTCTAACCTGTTGCCT (site ACCTGGGCTAG) | 0.0625
ATCTGGGCTTGGGTTCTAACCTGTTGCCT (site AGCTGGGCTAG) | 0.123
ATCTGGGCTTGGGTTCTAACCTGTTGCCT (site ATCTGGGCTAG) | 0.0992
ATCTTAACTTGGGTTCTAACCTGTTGCCT (site ATCTTAACTAG) | 0.183
ATCTTAACTTGGGTTCTAACCTGTTGCCT (site ATCTTACCTAG) | 0.643
ATCTTAACTTGGGTTCTAACCTGTTGCCT (site ATCTTAGCTAG) | 0.337
ATCTTAACTTGGGTTCTAACCTGTTGCCT (site ATCTTATCTAG) | 0.00981
ATCTTGTCTTGGGTTCTAACCTGTTGCCT (site ATCTTGTCTAG) | 0.977

Sequence | recombinant barcode read abundance (log10)
ATCTTGTCTTGGGTTCTAACCTGTTGCCT (site ATCTTGTCTCG) | 0.0162
ATGAAGACTTGGGTTCTAACCTGTTGCCT (site ATAAAGACTAG) | 2.09
ATGAAGACTTGGGTTCTAACCTGTTGCCT (site ATCAAGACTAG) | 1.07
ATGAAGACTTGGGTTCTAACCTGTTGCCT (site ATGAAGACTAG) | 2.13
ATGAAGACTTGGGTTCTAACCTGTTGCCT (site ATTAAGACTAG) | 1.12
ATGACCGCTTGGGTTCTAACCTGTTGCCA (site AGGACCACTTG) | 0.246
ATGACCGCTTGGGTTCTAACCTGTTGCCA (site ATGACCGCTTG) | 1.28
ATGACTACTTGGGTTCTAACCTGTTGCTA (site ATGACTACTGA) | 0.136
ATGACTACTTGGGTTCTAACCTGTTGCTA (site ATGACTACTTA) | 0.456
ATGAGAACTTGGGTTCTAACCTGTTGCCT (site ATGAGAACTAG) | 1.5
ATGAGAACTTGGGTTCTAACCTGTTGCCT (site ATGAGAACTCG) | 0.361
ATGATTCCTTGGGTTCTAACCTGTTGCCT (site AAGATTCCTAG) | 0
ATGATTCCTTGGGTTCTAACCTGTTGCCT (site ACGATTCCTAG) | 0.0545
ATGATTCCTTGGGTTCTAACCTGTTGCCT (site AGGATTCCTAG) | 0.0244
ATGATTCCTTGGGTTCTAACCTGTTGCCT (site ATGATTCCTAG) | 0.62
ATGATTGCTTGGGTTCTAACCTGTTGCCT (site ATGAATGCTAG) | 0.149
ATGATTGCTTGGGTTCTAACCTGTTGCCT (site ATGATTGCTAG) | 1.18
ATGCCCACTTGGGTTCTAACCTGTTGCCT (site ATGCCAACTAG) | 0.0683
ATGCCCACTTGGGTTCTAACCTGTTGCCT (site ATGCCCACTAG) | 1.33
ATGCCCACTTGGGTTCTAACCTGTTGCCT (site ATGCCGACTAG) | 0.049
ATGCCCACTTGGGTTCTAACCTGTTGCCT (site ATGCCTACTAG) | 0.106
ATGCGAGCTTGGGTTCTAACCTGTTGCAG (site ATGCGAGCTCA) | 0.791
